# Experimental data published in patent US20260022143A1, “Cyclic Peptide Inhibitors of IL-23” (JANSSEN PHARMACEUTICA NV, priority 2022, published 2026).
# Starred links: 1 amine or outer side, 2 acyl side, 3 side chain; linkers in the order of their positions; H or OH if unused. Positions of bridges follow the written chain, without caps; N, C: chain ends. Non-standard residues stand in square brackets, D forms with d. Residues, ends and D or L forms follow the SMILES beside them. *: point of attachment. Me3N+(CH2)2O(CH2)2O(CH2)2CO = C[N+](C)(C)CCOCCOCCC(=O)*; Trp(7-Me) = Cc1cccc2c(C[C@H](N)C(=O)O)c[nH]c12; d(hLys(Me3)) = C[N+](C)(C)CCCCC[C@@H](N)C(=O)O; Decanoyl(3,6,9-trioxa) = COCCOCCOCC(=O)*; Dab(NMeAc) = CC(=O)N(C)CC[C@H](N)C(=O)O; 2Nal = N[C@@H](Cc1ccc2ccccc2c1)C(=O)O; AEF = NCCOc1ccc(C[C@H](N)C(=O)O)cc1; X24 = C[N+](C)(CCN[*:1])CC(=O)[*:2]; 3Pal = N[C@@H](Cc1cccnc1)C(=O)O; Lys(Me) = CNCCCC[C@H](N)C(=O)O; Pen = CC(C)(S)[C@H](N)C(=O)O; Thp = NC1(C(=O)O)CCOCC1; X3 = C[N+](C)(C)CCCCC*; Sar = CNCC(=O)O
# Key:
# IL-23R = target: T1, IL-23R (Homo sapiens, UniProt Q5VWK5); assay: IL23R Reporter Assay; format: cell-based; details: HEK293 cells containing IL-23R, IL-12RP1 and STAT-inducible firefly luciferase reporter; 10 ng/mL IL-23 (EC90); 5 h at 37° C.; read-out: IL23R Reporter Assay
# T1 construct: host or cells: HEK293
# T1 sequence (Q5VWK5 24-629): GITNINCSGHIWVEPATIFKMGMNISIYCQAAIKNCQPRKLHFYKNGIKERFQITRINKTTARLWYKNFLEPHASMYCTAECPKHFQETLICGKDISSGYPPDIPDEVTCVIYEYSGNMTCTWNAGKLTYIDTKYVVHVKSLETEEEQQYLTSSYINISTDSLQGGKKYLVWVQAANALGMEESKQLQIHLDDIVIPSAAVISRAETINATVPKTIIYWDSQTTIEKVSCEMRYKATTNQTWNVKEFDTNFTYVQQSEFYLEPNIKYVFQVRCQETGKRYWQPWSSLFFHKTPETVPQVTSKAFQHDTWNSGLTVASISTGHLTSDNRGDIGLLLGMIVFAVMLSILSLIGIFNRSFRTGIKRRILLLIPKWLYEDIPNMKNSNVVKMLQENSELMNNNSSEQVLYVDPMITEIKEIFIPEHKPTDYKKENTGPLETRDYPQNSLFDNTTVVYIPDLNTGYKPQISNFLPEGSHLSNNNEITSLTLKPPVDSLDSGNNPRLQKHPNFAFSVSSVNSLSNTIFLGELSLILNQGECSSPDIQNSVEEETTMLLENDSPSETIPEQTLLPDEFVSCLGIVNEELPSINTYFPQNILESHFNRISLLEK
# [1] = Exposed Polar Surface Area (EPSA); format: physicochemical; details: SFC on Chirex 3014 column; sample 1 mM DMSO stock; read-out: EPSA
# How it was run: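 Polarity measured by SFC on a Chirex 3014 column (35 °C, 4 mL/min) with methanol/ammonium formate in CO2 as gradient eluent. Retention times were normalised to EPSA (Å^2) against eight reference compounds.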
structure (smiles),measurement,setting,value
"COCCOCCOCC(=O)NCC[N+](C)(C)CC(=O)N[C@@H]1C(=O)N[C@@H](CC(=O)N(C)C)C(=O)N[C@@H]([C@@H](C)O)C(=O)N[C@@H](Cc2c[nH]c3c(C)cccc23)C(=O)N[C@@H](CCC(=O)N(C)C)C(=O)N[C@H](C(=O)N[C@@H](Cc2ccc(OCCN)cc2)C(=O)N[C@@H](Cc2ccc3ccccc3c2)C(=O)NC2(C(=O)N[C@@H](CCC(=O)N(C)C)C(=O)N[C@@H](CC(N)=O)C(=O)N[C@@H](Cc3cccnc3)C(=O)N(C)CC(N)=O)CCOCC2)C(C)(C)SSC1(C)C [compound 146, mPEG3CO-SP6-Pen(3)-N(N(Me)2)-T-7MeW-Q(N(Me)2)-Pen(3)-AEF-2Nal-THP-Q(N(Me)2)-N-3Pya-Sar-CONH2] ({Decanoyl(3,6,9-trioxa)}-[X24][Pen]D(NMe2)T[Trp(7-Me)]E(NMe2)[Pen][AEF][2Nal][Thp]E(NMe2)N[3Pal][Sar]-NH2; disulfide 2-7)",IC50,IL-23R,3.8 nM
same,EPSA,[1],152 A^2
"Cc1cccc2c(C[C@@H]3NC(=O)[C@H]([C@@H](C)O)NC(=O)[C@H](CC(=O)N(C)C)NC(=O)[C@@H](NC(=O)CCOCCOCC[N+](C)(C)C)C(C)(C)SSC(C)(C)[C@@H](C(=O)N[C@@H](Cc4ccc(OCCN)cc4)C(=O)N[C@@H](Cc4ccc5ccccc5c4)C(=O)NC4(C(=O)N[C@@H](CCC(=O)N(C)C)C(=O)N[C@@H](CC(N)=O)C(=O)N[C@@H](Cc5cccnc5)C(=O)N(C)CC(N)=O)CCOCC4)NC(=O)[C@H](CCC(=O)N(C)C)NC3=O)c[nH]c12 [compound 147, cPEG3aCO-Pen(3)-N(N(Me)2)-T-7MeW-Q(N(Me)2)-Pen(3)-AEF-2Nal-THP-Q(N(Me)2)-N-3Pya-Sar-CONH2] ({Me3N+(CH2)2O(CH2)2O(CH2)2CO}-[Pen]D(NMe2)T[Trp(7-Me)]E(NMe2)[Pen][AEF][2Nal][Thp]E(NMe2)N[3Pal][Sar]-NH2; disulfide 1-6)",IC50,IL-23R,3.8 nM
same,EPSA,[1],156 A^2
"COCCOCCOCC(=O)NCC[N+](C)(C)CC(=O)N[C@@H]1C(=O)N[C@@H](CC(=O)N(C)C)C(=O)N[C@@H]([C@@H](C)O)C(=O)N[C@@H](Cc2c[nH]c3c(C)cccc23)C(=O)N[C@@H](CCCCN(C)C(C)=O)C(=O)N[C@H](C(=O)N[C@@H](Cc2ccc(OCCN)cc2)C(=O)N[C@@H](Cc2ccc3ccccc3c2)C(=O)NC2(C(=O)N[C@@H](CCCCNC(C)=O)C(=O)N[C@@H](CC(N)=O)C(=O)N[C@@H](Cc3cccnc3)C(=O)N(C)CC(N)=O)CCOCC2)C(C)(C)SSC1(C)C [compound 148, mPEG3CO-SP6-Pen(3)-N(N(Me)2)-T-7MeW-K(NMeAc)-Pen(3)-AEF-2Nal-THP-K(Ac)-N-3Pya-Sar-CONH2] ({Decanoyl(3,6,9-trioxa)}-[X24][Pen]D(NMe2)T[Trp(7-Me)][Lys(Me)](Ac)[Pen][AEF][2Nal][Thp]K(Ac)N[3Pal][Sar]-NH2; disulfide 2-7)",IC50,IL-23R,2.6 nM
same,EPSA,[1],153 A^2
"CC(=O)NCCCC[C@H](NC(=O)C1(NC(=O)[C@H](Cc2ccc3ccccc3c2)NC(=O)[C@H](Cc2ccc(OCCN)cc2)NC(=O)[C@H]2NC(=O)[C@H](CCCCN(C)C(C)=O)NC(=O)[C@H](Cc3c[nH]c4c(C)cccc34)NC(=O)[C@H]([C@@H](C)O)NC(=O)[C@H](CC(=O)N(C)C)NC(=O)[C@@H](NC(=O)CCOCCOCC[N+](C)(C)C)C(C)(C)SSC2(C)C)CCOCC1)C(=O)N[C@@H](CC(N)=O)C(=O)N[C@@H](Cc1cccnc1)C(=O)N(C)CC(N)=O [compound 149, cPEG3aCO-Pen(3)-N(N(Me)2)-T-7MeW-K(NMeAc)-Pen(3)-AEF-2Nal-THP-K(Ac)-N-3Pya-Sar-CONH2] ({Me3N+(CH2)2O(CH2)2O(CH2)2CO}-[Pen]D(NMe2)T[Trp(7-Me)][Lys(Me)](Ac)[Pen][AEF][2Nal][Thp]K(Ac)N[3Pal][Sar]-NH2; disulfide 1-6)",IC50,IL-23R,2.1 nM
same,EPSA,[1],157 A^2
"COCCOCCOCC(=O)NCC[N+](C)(C)CC(=O)N[C@@H]1C(=O)N[C@@H](CC(=O)N(C)C)C(=O)N[C@@H]([C@@H](C)O)C(=O)N[C@@H](Cc2c[nH]c3c(C)cccc23)C(=O)N[C@@H](CCCCN(C)C(C)=O)C(=O)N[C@H](C(=O)N[C@@H](Cc2ccc(OCCN)cc2)C(=O)N[C@@H](Cc2ccc3ccccc3c2)C(=O)NC2(C(=O)N[C@@H](CCC(=O)N(C)C)C(=O)N[C@@H](CC(N)=O)C(=O)N[C@@H](Cc3cccnc3)C(=O)N(C)CC(N)=O)CCOCC2)C(C)(C)SSC1(C)C [compound 152, mPEG3CO-SP6-Pen(3)-N(N(Me)2)-T-7MeW-K(NMeAc)-Pen(3)-AEF-2Nal-THP-QNMe2-N-3Pya-Sar-CONH2] ({Decanoyl(3,6,9-trioxa)}-[X24][Pen]D(NMe2)T[Trp(7-Me)][Lys(Me)](Ac)[Pen][AEF][2Nal][Thp]E(NMe2)N[3Pal][Sar]-NH2; disulfide 2-7)",IC50,IL-23R,1.6 nM
same,EPSA,[1],155 A^2
CC(=O)NCCCC[C@@H]1NC(=O)[C@H](Cc2c[nH]c3c(C)cccc23)NC(=O)[C@H]([C@@H](C)O)NC(=O)[C@H](CC(N)=O)NC(=O)[C@@H](NC(C)=O)C(C)(C)SSC(C)(C)[C@@H](C(=O)N[C@@H](Cc2ccc(OCCN)cc2)C(=O)N[C@@H](Cc2ccc3ccccc3c2)C(=O)NC2(C(=O)N[C@@H](CCCCNC(C)=O)C(=O)N[C@@H](CC(N)=O)C(=O)N(C)C)CCOCC2)NC1=O [compound 153] (Ac-[Pen]NT[Trp(7-Me)]K(Ac)[Pen][AEF][2Nal][Thp]K(Ac)N-NMe2; disulfide 1-6 (inferred)),IC50,IL-23R,270 nM
same,EPSA,[1],171 A^2
"Cc1cccc2c(C[C@@H]3NC(=O)[C@H]([C@@H](C)O)NC(=O)[C@H](CC(N)=O)NC(=O)[C@@H](NC(=O)CCOCCOCC[N+](C)(C)C)C(C)(C)SSC(C)(C)[C@@H](C(=O)N[C@@H](Cc4ccc(OCCN)cc4)C(=O)N[C@@H](Cc4ccc5ccccc5c4)C(=O)NC4(C(=O)N[C@@H](CCC(=O)N(C)C)C(=O)N[C@@H](CC(N)=O)C(=O)N[C@@H](Cc5cccnc5)C(=O)N(C)CC(=O)N(C)C)CCOCC4)NC(=O)[C@H](CCC(=O)N(C)C)NC3=O)c[nH]c12 [compound 156, cPEG3aCO-Pen(3)-N-T-7MeW-Q(N(Me)2)-Pen(3)-AEF-2Nal-THP-Q(N(Me)2)-N-3Pya-Sar-CON(Me)2] ({Me3N+(CH2)2O(CH2)2O(CH2)2CO}-[Pen]NT[Trp(7-Me)]E(NMe2)[Pen][AEF][2Nal][Thp]E(NMe2)N[3Pal][Sar]-NMe2; disulfide 1-6)",IC50,IL-23R,2 nM
same,EPSA,[1],155 A^2
"CC(=O)N(C)CC[C@H](NC(=O)C1(NC(=O)[C@H](Cc2ccc3ccccc3c2)NC(=O)[C@H](Cc2ccc(OCCN)cc2)NC(=O)[C@H]2NC(=O)[C@H](CCC(=O)N(C)C)NC(=O)[C@H](Cc3c[nH]c4c(C)cccc34)NC(=O)[C@H]([C@@H](C)O)NC(=O)[C@H](CC(=O)N(C)C)NC(=O)[C@@H](NC(=O)CCOCCOCC[N+](C)(C)C)C(C)(C)SSC2(C)C)CCOCC1)C(=O)N[C@@H](CC(N)=O)C(=O)N[C@@H](Cc1cccnc1)C(=O)N(C)CC(=O)N(C)C [compound 159, cPEG3aCO-Pen(3)-N(N(Me)2)-T-7MeW-Q(N(Me)2)-Pen(3)-AEF-2Nal-THP-Dab(NMeAc)-N-3Pya-Sar-CON(Me)2] ({Me3N+(CH2)2O(CH2)2O(CH2)2CO}-[Pen]D(NMe2)T[Trp(7-Me)]E(NMe2)[Pen][AEF][2Nal][Thp][Dab(NMeAc)]N[3Pal][Sar]-NMe2; disulfide 1-6)",IC50,IL-23R,1.8 nM
same,EPSA,[1],149 A^2
"CC(=O)N[C@H](CCCCC[N+](C)(C)C)C(=O)N[C@@H]1C(=O)N[C@@H](CC(=O)N(C)C)C(=O)N[C@@H]([C@@H](C)O)C(=O)N[C@@H](Cc2c[nH]c3c(C)cccc23)C(=O)N[C@@H](CCCCN(C)C(C)=O)C(=O)N[C@H](C(=O)N[C@@H](Cc2ccc(OCCN)cc2)C(=O)N[C@@H](Cc2ccc3ccccc3c2)C(=O)NC2(C(=O)N[C@@H](CCC(=O)O)C(=O)N[C@@H](CC(N)=O)C(=O)N[C@@H](Cc3cccnc3)C(=O)N(C)CC(=O)N(C)C)CCOCC2)C(C)(C)SSC1(C)C [compound 163, MeCO-hk(Me)3-Pen(3)-N(N(Me)2)-T-7MeW-K(NMeAc)-Pen(3)-AEF-2Nal-THP-E-N-3Pya-Sar-CON(Me)2] (Ac-[d(hLys(Me3))][Pen]D(NMe2)T[Trp(7-Me)][Lys(Me)](Ac)[Pen][AEF][2Nal][Thp]EN[3Pal][Sar]-NMe2; disulfide 2-7 (inferred))",IC50,IL-23R,3.2 nM
same,EPSA,[1],168 A^2
"CC(=O)N(C)CCCC[C@@H]1NC(=O)[C@H](Cc2c[nH]c3c(C)cccc23)NC(=O)[C@H]([C@@H](C)O)NC(=O)[C@H](CC(=O)N(C)C)NC(=O)[C@@H](NC(=O)CCOCCOCC[N+](C)(C)C)C(C)(C)SSC(C)(C)[C@@H](C(=O)N[C@@H](Cc2ccc(OCCCCC[N+](C)(C)C)cc2)C(=O)N[C@@H](Cc2ccc3ccccc3c2)C(=O)NC2(C(=O)N[C@@H](CCC(=O)O)C(=O)N[C@@H](CC(N)=O)C(=O)N[C@@H](Cc3cccnc3)C(=O)N(C)CC(=O)N(C)C)CCOCC2)NC1=O [compound 165, cPEG3aCO-Pen(3)-N(N(Me)2)-T-7MeW-K(NMeAc)-Pen(3)-TMAPF-2Nal-THP-E-N-3Pya-Sar-CON(Me)2] ({Me3N+(CH2)2O(CH2)2O(CH2)2CO}-[Pen]D(NMe2)T[Trp(7-Me)][Lys(Me)](Ac)[Pen]Y(X3)[2Nal][Thp]EN[3Pal][Sar]-NMe2; disulfide 1-6)",IC50,IL-23R,4.3 nM
same,EPSA,[1],151 A^2
